Source: publication PMC7247319, “The mitochondria-targeted peptide SS-31 binds lipid bilayers and modulates surface electrostatics as a key component of its mechanism of action” (The Journal of Biological Chemistry, 2020)
Where a SMILES comes first, the peptide text is derived from it. [ ]: non-standard residue; d: D form. Dmt = Cc1cc(O)cc(C)c1C[C@H](N)C(=O)O

How the values were obtained:
[1] = system: LUVs containing 20% TOCL or POPG in POPC background; assay: Fluorescent reporters of lipid dynamics and packing (DPH anisotropy, laurdan and prodan GP)
Protocol: Figure 4. Effects of SS-31 on structural properties of model membranes. […] LUVs composed of 20% anionic lipid (TOCL, MLCL, or POPG) in POPC background were measured in the absence or presence of peptide ([SS-31]/[lipid]^eff = 1:5) as indicated. A, synchrotron SAXS measurements showing background-subtracted scattering density profiles for LUVs in the absence (black) or presence (red) of SS-31. B, ^31P solid-state NMR spectra of LUVs in the absence (bottom spectra) or presence (top spectra) of SS-31. C, SS-31 alters lipid packing interactions. Shown are changes in laurdan and prodan GP values (ΔGP) with increasing [SS-31] for LUVs containing 20% TOCL or POPG in POPC background as indicated. Data and fits in gray show SS-31 fractional saturation (calculated from Fig. 2A, [lipid]^eff = 25 μM). […]
We therefore addressed whether SS-31 altered lipid interactions within these model bilayers. […] Using 1,6-diphenyl-1,3,5-hexatriene (DPH) anisotropy (〈r〉^DPH) as a readout of the fluid dynamics of hydrocarbon tails, we observed no effect of SS-31 in TOCL- or POPG-containing membranes (Fig. S10, D and E). […]
Steady-state fluorescence measurements were performed with a Fluorolog 3-22 spectrofluorometer (HORIBA Jobin-Yvon) equipped with photon-counting electronics, double-grating excitation and emission monochromators, automated Glan–Thompson polarizers, and a 450-watt xenon lamp. […]

[2] = system: LUVs composed of POPC alone or with 20% TOCL, MLCL, or POPG; assay: Synchrotron SAXS and 31P solid-state NMR of model membranes; conditions: highest peptide concentration, [P]/[L]^eff = 1:5; 2 mM total lipid
From the text: Amphipathic molecules such as antimicrobial peptides can induce large structural changes in membranes, including micellization, pore formation, and induction of inverted topologies ([45]). We therefore addressed whether SS-31 induced structural polymorphism within model bilayers using a range of approaches (Fig. 4). […] Similarly, based on ^31P solid-state NMR (ssNMR) measurements, these model membranes yielded line shapes consistent with lamellar bilayers ([47]), and we observed no effect of SS-31 on bilayer structure (Fig. 4B, supporting Results F, and Fig. S10B). […] Thus, these membranes are expected to exist stably in the liquid crystalline lamellar mesophase over all peptide concentrations.
Figure 4. Effects of SS-31 on structural properties of model membranes. […] LUVs composed of 20% anionic lipid (TOCL, MLCL, or POPG) in POPC background were measured in the absence or presence of peptide ([SS-31]/[lipid]^eff = 1:5) as indicated. […] Data and fits in gray show SS-31 fractional saturation (calculated from Fig. 2A, [lipid]^eff = 25 μM). […]
NMR data were recorded at 162 MHz on a Bruker AVANCE III 400-MHz WB spectrometer equipped with an HXY probe tuned for ^1H and ^31P. […] Model membranes (LUVs) were measured at 25 °C (total of 10,240 scans/sample) with a total lipid concentration of 2 mM lipid in the presence of different concentrations of SS-31 (0, 1:500, 1:50, and 1:5 [P]/[L]^eff). […]

## Cc1cc(O)cc(C)c1C[C@H](NC(=O)[C@H](N)CCCNC(=N)N)C(=O)N[C@@H](CCCCN)C(=O)N[C@@H](Cc1ccccc1)C(N)=O [SS-31, D-Arg-2′6′-dimethyl-Tyr-Lys-Phe-NH2] (H-[dR][Dmt]KF-NH2)
[1]; TOCL- or POPG-containing membranes
  effect on DPH anisotropy (fluid dynamics of hydrocarbon tails): no effect
[1]; increasing [SS-31], 20% TOCL or POPG LUVs, n = 3
  effect on laurdan and prodan generalized polarization (GP^LAU, GP^PRO): modest, yet repeatable and saturable, increases
[2]
  effect on bilayer structure / lamellarity (SAXS, 31P ssNMR): did not cause major topological alterations
